# US9283280B2, “Compositions for drug administration” (Aegis Therapeutics, LLC, priority 2008, dated 2016)
# What was measured:
# [1] = Naratriptan sublingual spray two-way crossover study in patients; type: in vivo; settings: in the presence of 0.18-0.2% alkylsaccharide (dodecylmaltoside)
# Method: Manufacturing process: Naratriptan hydrochloride salt is dissolved in water and required quantity of polyethylene glycol or ethanol is added. The alkyl glycoside, flavors, aspartame are next dissolved in the solution. Final adjustment of volume is made with water. The sublingual formulation with and without dodecylmaltoside alkylsaccharide is administered using a metered spray pump to 20 patients in a two way, two period cross over study.
# [2] = test system: Staphylococcus aureus (ATCC No. 6538); test: Antimicrobial activity of alkylglycoside solutions, plate count log reduction; type: cell-based; settings: 0.2%, BSA
# Source text: (§1) 20110-2209. The viable microorganisms used in the invention were not more than five passages removed from the original ATCC culture. As described herein, one passage is defined as the transfer of organisms from an established culture to fresh medium and all transfers are counted.
# (§2) Cultures received from the ATCC are resuscitated according to the directions provided by the ATTC. Cells grown in broth were pelleted by centrifugation, resuspended in 1/20th the volume of fresh maintenance broth, and combined with an equal volume of 20% (v/v in water) sterile glycerol. Cells grown on agar were scraped from the surface into the maintenance broth also containing 10% glycerol broth. Small aliquots of the suspension were dispensed into sterile vials and the vials were stored in liquid nitrogen or in a mechanical freezer at a temperature no higher than about −50° C. When a fresh seed-stock vial was required, it was removed and used to inoculate a series of working stock cultures. These working stock cultures were then used periodically (each day in the case of bacteria and yeast) to start the inoculum culture.
# (§3) The culture conditions for the inoculum culture is substantially as described in Table IV. For example, suitable media can include but is not limited to, Soybean-Casein Digest or Sabouraud Dextrose Agar Medium. […]
# (§4) The suspension should be refrigerated if it is not used within 2 hours. To confirm the initial cfu per mL estimate, the number of cfu per mL in each suspension was determined using the conditions of media and microbial recovery incubation times listed in Table IV (e.g., from about 3 to about 7 days). This value serves to calibrate the size of inoculum used in the test. The bacterial and yeast suspensions were used within 24 hours of harvest; whereas the fungal preparation can be stored under refrigeration for up to 7 days.
# (§5) To determine which alkylglycoside formulations have antibacterial activity, the formulations were prepared in phosphate buffered saline (PBS) at pH 7. As a source of nutrition, either 1.5 mg/mL bovine serum albumin (BSA; see Tables V and VI) or 1 mg/mL of PYY was added (see Table VII) to the medium. BSA (CAS Number: 9048-46-8) was obtained from Sigma-Aldrich, St. Louis, Mo., USA, n-dodecyl-4-O-α-D-glucopyranosyl-β-D-glucopyranoside and n-tetradecyl-4-O-α-D-glucopyranosyl-β-D-glucopyranoside were obtained from Anatrace Inc., Maumee, Ohio, USA, and PYY was obtained from Bachem California Inc., Torrance, Calif., USA.
# (§6) Antibacterial activity of the alkylglycosides were conducted in four sterile, capped bacteriological containers of suitable size into which a sufficient volume of alkylglycoside solution had been transferred. Each container was inoculated with one of the prepared and standardized inoculums and mixed. The volume of the suspension inoculum was between about 0.5% and about 1.0% of the volume of the alkylglycoside solution. […]. To determine the level of inhibition of growth, or reduction of growth based on a logarithmic scale, the initial concentration of viable microorganisms in each test preparation was estimated based on the concentration of microorganisms in each of the standardized inoculum as determined by the plate-count method. The inoculated containers were then incubated at about 22.5° C.±2.5. The growth or non-growth of the microorganisms in each culture/container were again determined at day 14 and day 28. The number of cfu present in each calculation was determined by the plate-count procedure standard in the art for the applicable intervals. The change in the orders of magnitude of bacterium and/or fungi was then determined by subtracting the first calculated log 10 values of the concentrations of cfu per mL present at the start or beginning (e.g., day 0), from the log 10 values of the concentration of cfu per mL for each microorganism at the applicable test intervals (e.g., day 14 and day 28; see Tables V, VI and VII).
# [3] = test system: Escherichia coli (ATCC No. 8739); test: as above; type: cell-based; settings: 0.2%, BSA; growth from initial count
# Source text: as §1, §2, §3, §4, §5, §6
# [4] = test system: Candida albicans (ATCC No. 10231); test: as above; type: cell-based; settings: 0.2%, BSA
# Source text: as §1, §2, §3, §4, §5, §6
# [5] = test system: Aspergillus niger (ATCC No. 16404); test: as above; type: cell-based; settings: 0.2%, BSA
# Source text: as §1, §2, §3, §4, §5, §6
# human nasal epithelium = settings: in vivo
# blood D-glucose [6] = test: Insulin eye drops with absorption enhancer in xylazine/ketamine-anesthetized hyperglycemic rats, blood D-glucose; type: in vivo, rat; settings: for Blood Glucose: before eye drops
# blood D-glucose [7] = test: Insulin nose drops with tetradecylmaltoside in rats, blood glucose; type: in vivo, rat; settings: nose drop, same insulin concentration with 0.5% tetradecylmaltoside
# Source text: Tetradecylmaltoside (TDM) in combination with insulin also produced a drop in blood D-glucose levels when administered in the form of a drop intranasally as well as via a drop by the ocular route. […] Thus, intranasal delivery and administration of the alkyl saccharide with drug results in lowering of blood glucose levels.
# [8] = Intranasal triptans with alkylsaccharide in rats, plasma levels by HPLC; type: in vivo;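 note: rats in groups of eight given 20 µL into one nostril, dose expressed as triptan free base, Cmax and Tmax read from plasma concentration–time curves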
# Method: Each set of drug solutions is administered to six groups of eight rats each by 20 uL instillation to a single nare of each animal. […] After the last blood sample is collected each animal is cuthanizcd with CO2. After blood collection, plasma is immediately prepared from each blood sample using lithium/heparin as the anticoagulant. Plasma samples are stored at −70° C. until analyzed. […] The observed Tmax values from each plot is determined by inspection of the concentration vs time plots and recorded as shown in Table XII. The doses designated in this table reflect amounts of triptan free base in each case.
# [9] = cited from earlier work
# [10] = Naratriptan 0.22 mg/kg intranasal, alkylsaccharide 0.02%
# [11] = Naratriptan 0.22 mg/kg intranasal, alkylsaccharide 0.05%
# [12] = Naratriptan 0.22 mg/kg intranasal, alkylsaccharide 0.1%
# [13] = Naratriptan 0.22 mg/kg intranasal, alkylsaccharide 0.5%
# [14] = Naratriptan 0.22 mg/kg intranasal, alkylsaccharide 2%
# [15] = Sumatriptan 6.2 mg/kg intranasal, alkylsaccharide 0.02%
# [16] = Sumatriptan 6.2 mg/kg intranasal, alkylsaccharide 0.05%
# [17] = Sumatriptan 6.2 mg/kg intranasal, alkylsaccharide 0.1%
# [18] = Sumatriptan 6.2 mg/kg intranasal, alkylsaccharide 0.5%
# [19] = Sumatriptan 6.2 mg/kg intranasal, alkylsaccharide 2%
smiles,measurement,setting,value
CNS(=O)(=O)CCc1ccc2[nH]cc(C3CCN(C)CC3)c2c1 [naratriptan],bioavailability across the sublingual mucosal membranes,[1],little increase
"CCCCCCCCCCCCCCO[C@@H]1O[C@H](CO)[C@@H](O[C@H]2O[C@H](CO)[C@@H](O)[C@H](O)[C@H]2O)[C@H](O)[C@H]1O [tetradecyl maltoside, n-tetradecyl-4-O-α-D-glucopyranosyl-β-D-glucopyranoside]","Log Reductions, Day 14",[2],≧5 orders of orders of magnitude reduction
same,"Log Reductions, Day 28",[2],≧5 orders of orders of magnitude reduction
same,"Log Reductions, Day 28",[3],No growth
same,"Log Reductions, Day 14",[4],3.0 orders of orders of magnitude reduction
same,"Log Reductions, Day 28",[4],≧5.4 orders of orders of magnitude reduction
same,"Log Reductions, Day 14",[5],0.5 orders of orders of magnitude reduction
same,"Log Reductions, Day 28",[5]; growth from initial count,No growth
same,irritation of the nasal mucosa,human nasal epithelium,no observable irritation
same,hypoglycemic effect / insulin absorption enhancement,blood D-glucose [6]; eye drops 0.2% insulin + 0.5% enhancer,effective
same,hypoglycemic effect / insulin absorption enhancement,blood D-glucose [6]; eye drops 0.2% insulin + […] enhancer,effective
same,effect on blood glucose levels,blood D-glucose [6]; eye drops 0.2% regular porcine insulin with […] tetradecylmaltoside,prompt and prominent drop in blood glucose levels
same,Blood Glucose,blood D-glucose [6]; time −10 min,311 mg/dL
same,Blood Glucose,blood D-glucose [6]; time −20 min,319 mg/dL
same,effect on blood glucose levels,blood D-glucose [7],decrease even more
same,Ratio Cmax(alkylsacch)/Cmax(No alkylsacch),[8]; [10],≦1.5
same,Tmax,[8]; [10],~60 min
same,Ratio Cmax(alkylsacch)/Cmax(No alkylsacch),[8]; [11],≧1.5
same,Tmax,[8]; [11],~5 to 15 min
same,Ratio Cmax(alkylsacch)/Cmax(No alkylsacch),[8]; [12],≧1.5
same,Tmax,[8]; [12],~5 to 15 min
same,Ratio Cmax(alkylsacch)/Cmax(No alkylsacch),[8]; [13],≧1.5
same,Tmax,[8]; [13],~5 to 15 min
same,Ratio Cmax(alkylsacch)/Cmax(No alkylsacch),[8]; [14],≧1.5
same,Tmax,[8]; [14],~5 to 15 min
same,Tmax,"[8]; Rizatriptan […] intranasal, alkylsaccharide 0.02%",~60 min
same,Tmax,"[8]; Rizatriptan […] intranasal, alkylsaccharide 0.05%",~5 to 15 min
same,Tmax,"[8]; Rizatriptan […] intranasal, alkylsaccharide 0.1%",~5 to 15 min
same,Tmax,"[8]; Rizatriptan […] intranasal, alkylsaccharide 0.5%",~5 to 15 min
same,Tmax,"[8]; Rizatriptan […] intranasal, alkylsaccharide 2%",~5 to 15 min
same,Ratio Cmax(alkylsacch)/Cmax(No alkylsacch),[8]; [15],≦1.5
same,Tmax,[8]; [15],~60 min
same,Ratio Cmax(alkylsacch)/Cmax(No alkylsacch),[8]; [16],≧1.5
same,Tmax,[8]; [16],~5 to 15 min
same,Ratio Cmax(alkylsacch)/Cmax(No alkylsacch),[8]; [17],≧1.5
same,Tmax,[8]; [17],~5 to 15 min
same,Ratio Cmax(alkylsacch)/Cmax(No alkylsacch),[8]; [18],≧1.5
same,Tmax,[8]; [18],~5 to 15 min
same,Ratio Cmax(alkylsacch)/Cmax(No alkylsacch),[8]; [19],≧1.5
same,Tmax,[8]; [19],~5 to 15 min
O=C(c1ccc(OCCN2CCCCC2)cc1)c1c(-c2ccc(O)cc2)sc2cc(O)ccc12 [raloxifene],water solubility,[9],approx. 0.25 mg/L
